# Target: T1, human HSL (Homo sapiens, UniProt Q05469)
# T1 construct: fused on or other part: C-terminal His6 tag
# T1 sequence (Q05469 1-1076): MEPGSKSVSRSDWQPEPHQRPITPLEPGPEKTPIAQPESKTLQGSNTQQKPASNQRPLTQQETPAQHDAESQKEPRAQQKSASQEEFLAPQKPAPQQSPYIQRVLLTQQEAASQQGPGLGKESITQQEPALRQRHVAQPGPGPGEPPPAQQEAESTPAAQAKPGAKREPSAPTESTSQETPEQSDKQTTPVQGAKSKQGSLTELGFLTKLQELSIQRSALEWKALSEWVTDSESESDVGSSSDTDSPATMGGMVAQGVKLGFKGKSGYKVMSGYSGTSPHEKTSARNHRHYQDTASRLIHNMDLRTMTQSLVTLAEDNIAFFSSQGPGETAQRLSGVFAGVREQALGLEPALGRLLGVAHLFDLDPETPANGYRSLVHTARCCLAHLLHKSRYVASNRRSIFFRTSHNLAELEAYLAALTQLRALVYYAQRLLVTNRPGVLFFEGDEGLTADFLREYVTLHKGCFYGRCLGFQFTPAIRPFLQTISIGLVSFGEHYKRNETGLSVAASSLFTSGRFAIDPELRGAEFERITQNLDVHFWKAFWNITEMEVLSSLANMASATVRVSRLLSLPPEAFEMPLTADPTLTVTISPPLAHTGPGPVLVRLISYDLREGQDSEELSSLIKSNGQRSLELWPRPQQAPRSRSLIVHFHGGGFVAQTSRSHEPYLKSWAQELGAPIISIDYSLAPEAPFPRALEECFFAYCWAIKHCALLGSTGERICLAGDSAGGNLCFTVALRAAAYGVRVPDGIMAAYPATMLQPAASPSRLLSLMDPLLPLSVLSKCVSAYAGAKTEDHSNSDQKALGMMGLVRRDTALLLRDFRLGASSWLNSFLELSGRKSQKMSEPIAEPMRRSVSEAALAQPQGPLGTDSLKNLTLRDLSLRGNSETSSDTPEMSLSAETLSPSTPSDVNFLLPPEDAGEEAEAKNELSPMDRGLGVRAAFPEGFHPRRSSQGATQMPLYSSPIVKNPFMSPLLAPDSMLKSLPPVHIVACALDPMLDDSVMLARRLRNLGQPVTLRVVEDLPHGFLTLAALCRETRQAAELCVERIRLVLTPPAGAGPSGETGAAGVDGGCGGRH
# Test: Human Hormone-Sensitive Lipase (HSL) enzyme inhibition assay (colorimetric, DMPT substrate)
# Format: biochemical
# Conditions: human full length HSL-His6, 2,3-dimercapto-1-propanol tributyrate substrate, 37° C. 20 minutes; read-out: HSL hum IC50
# Experimental: Production of Human full length Hormone Sensitive Lipase-His^6:
# 1) Cloning: cDNA was prepared from commercial human brain polyA+ RNA and used as a template in overlapping PCR to generate a full length human HSL ORF with a 3′-His6 tag. This full length insert was cloned into the pFast-BAC vector and the DNA-sequence of several single clones was verified. DNA from a correct full length clone with the 3′His6 tag was used to transform the E. coli strain DH10BAC. Resulting bacmid DNA was used to generate a titered baculovirus stock for protein generation. The sequence of the encoded HSL conforms to Swissprot entry Q05469, with the additional C-terminal His6-tag.
# 2) Protein purification: Culture: 5.5 L, High 5 cells expressing human full length HSL-His^6, 48 hr., containing 25 μM E-64. Cell count: […], 90% viable.
# Cells were thawed. On ice, cells were suspended in Base Buffer containing 10% glycerol, 25 mM Tris-Cl, 300 mM NaCl, 10 mM imidazole, 10 mM 2-mercaptoethanol, 2 μg pepstatin/ml, 2 μg leupeptin/ml, 2 μg antipain/ml, pH 8.0 at 4° C. in a final volume of 475 ml with 3.75×10^7 cells/ml. […] was done at 3×30 sec., Lubrol PX was added to 0.2% final concentration followed by stirring for 15 min. at 4° C. and centrifugation at 25 k×g, 60 min., 4° C. Soluble proteins were mixed with 60 ml of pre-washed and equilibrated Ni-NTA Agarose (Qiagen 30210) followed by tumbling end-over-end, 45 min., 4° C., centrifugation 1000 rpm 5 min and letting resin settle 5 min. Supernatant was removed, the resin washed in the centrifuge vessel using 5 volumes of Base Buffer containing 0.2% Lubrol PX. Centrifugation was done again, then the supernatant discarded. The resin was poured onto a 0.8 μm membrane in a disposable filter unit (Nalge 450-0080), and washed with 5 volumes of Base Buffer containing 0.2% Lubrol PX. It was then washed with 30 volumes of Base Buffer containing 60 mM imidazole pH 7.5 at 4° C. The protein was eluated with 5 volumes of 25 mM Tris-Cl, 300 mM NaCl, 200 mM imidazole, 10 mM 2-mercaptoethanol, pH 7.5 at 4° C. by tumbling resin with buffer end-over-end, 30 min., 4° C. The resin was captured on a 0.2 μm membrane disposable filter unit (Millipore SCGP U02 RE) and the eluate collected in the reservoir. The eluate was concentrated using a 30 k MWCO centrifugal filter device (Sartorius Vivascience Vivacell 100, VC1022), to 20 ml. It was then dialyzed overnight at 4° C., two times against 2 L of 10% glycerol, 25 mM Tris-Cl, 300 mM NaCl, 0.2 mM EDTA, 0.2 mM DTT, pH 7.5 at 4° C. The protein was filtered using a 0.22 μm disposable filter unit (Millipore SCGP00525). The protein concentration was calculated from absorbance at 280 nm, using 280=0.67 cm-1 mg-1. Yield was 235 mg, total. The protein was stored at −80° C.
# Human Hormone-Sensitive Lipase (HSL) enzyme inhibition assay:
# HSL enzyme activity was measured by a colorimetric assay using 2,3-dimercapto-1-propanol tributyrate (Aldrich, St. Louis, Mo.) as a substrate. Typically, 1.5 mM 2,3-dimercapto-1-propanol tributyrate (DMPT) in 100 mM MOPS, pH 7.2, 0.2 mg/ml fatty acid-free BSA was prepared by sonication at 4° C. to homogenous suspension. Test compounds (2 mM stock in DMSO) were diluted 3 fold in series in DMSO. Compound solutions were diluted 24 fold in 1.5 mM DMPT containing solution and 18 ul per well was added to 384-well microplates (Corning Costar). Twelve microliters per well of human HSL (15 ug/ml) was added and the reaction mixture was incubated at 37° C. for 20 minutes. Six microliters of 12 mM dithio-bis-(2-nitrobenzoic acid) (DTNB) in DMSO plus 1.2% SDS and 0.6% Triton X-100 were added and the mixture was incubated at room temperature for 15 minutes. Product production was monitored by reading absorbance at 405 nm on an Envision Reader (PerkinElmer Life and Analytical Sciences, Shelton, Conn.).
row,Structure (SMILES),IC50 [nM]
1,"CC(C)(C)CN1CCC2(CCN(c3ccc(OC(F)(F)F)cc3)C2=O)CC1=O (stereo not drawn) [Example 9, 8-(2,2-Dimethyl-propyl)-2-(4-trifluoromethoxy-phenyl)-2,8-diaza-spiro[4.5]decane-1,7-dione]",80
2,"CC(C)(C)CC(=O)N1CCC2(CCN(c3ccc(OC(F)(F)F)cc3)C2=O)CC1=O (stereo not drawn) [Example 5, 8-(3,3-Dimethyl-butyryl)-2-(4-trifluoromethoxy-phenyl)-2,8-diaza-spiro[4.5]decane-1,7-dione]",110
3,"CC(C)(C)CC(=O)N1CCC2(CCN(c3ccc(OCC(F)(F)F)cc3)C2=O)CC1=O (stereo not drawn) [Example 12, 8-(3,3-dimethylbutanoyl)-2-(4-(2,2,2-trifluoroethoxy)phenyl)-2,8-diazaspiro[4.5]decane-1,7-dione]",140
4,"CCCCN1CCC2(CCN(c3ccc(OC(F)(F)F)cc3)C2=O)CC1=O (stereo not drawn) [Example 8, 8-Butyl-2-(4-trifluoromethoxy-phenyl)-2,8-diaza-spiro[4.5]decane-1,7-dione]",100
5,"CCCN1CCC2(CCN(c3ccc(OC(F)(F)F)cc3)C2=O)CC1=O (stereo not drawn) [Example 2, 8-Propyl-2-(4-trifluoromethoxy-phenyl)-2,8-diaza-spiro[4.5]decane-1,7-dione]",250

# Second part, the molecule after the results:
row,IC50 [nM],Structure (SMILES)
1,6020,"CN1CCC2(CCN(c3ccc(OC(F)(F)F)cc3)C2=O)CC1=O (stereo not drawn) [Example 6, 8-Methyl-2-(4-trifluoromethoxy-phenyl)-2,8-diaza-spiro[4.5]decane-1,7-dione]"
2,60,"CC(C)(C)CC(=O)N1CCC2(CCN(c3ccc(CC(F)(F)F)cc3)C2=O)CC1=O (stereo not drawn) [Example 11, 8-(3,3-dimethylbutanoyl)-2-(4-(2,2,2-trifluoroethyl)phenyl)-2,8-diazaspiro[4.5]decane-1,7-dione]"
3,270,"O=C1CC2(CCN1Cc1ccccc1)CCN(c1ccc(OC(F)(F)F)cc1)C2=O (stereo not drawn) [Example 1, 8-Benzyl-2-(4-trifluoromethoxy-phenyl)-2,8-diaza-spiro[4.5]decane-1,7-dione]"
4,30,"O=C1CC2(CCN(c3ccc(CC(F)(F)F)cc3)C2=O)CCN1S(=O)(=O)c1ccccc1Cl (stereo not drawn) [Example 10, 8-(2-chlorophenylsulfonyl)-2-(4-(2,2,2-trifluoroethyl)phenyl)-2,8-diazaspiro[4.5]decane-1,7-dione]"
5,30,"O=C1CC2(CCN(c3ccc(OC(F)(F)F)cc3)C2=O)CCN1S(=O)(=O)c1ccccc1Cl (stereo not drawn) [Example 3, 8-(2-Chloro-benzenesulfonyl)-2-(4-trifluoromethoxy-phenyl)-2,8-diaza-spiro[4.5]decane-1,7-dione]"
6,810,"CCN1CCC2(CCN(c3ccc(OC(F)(F)F)cc3)C2=O)CC1=O (stereo not drawn) [Example 7, 8-Ethyl-2-(4-trifluoromethoxy-phenyl)-2,8-diaza-spiro[4.5]decane-1,7-dione]"
7,160,"CC(C)CS(=O)(=O)N1CCC2(CCN(c3ccc(OC(F)(F)F)cc3)C2=O)CC1=O (stereo not drawn) [Example 4, 8-(2-Methyl-propane-1-sulfonyl)-2-(4-trifluoromethoxy-phenyl)-2,8-diaza-spiro[4.5]decane-1,7-dione]"

# From patent US8097634B2, “Azacyclic derivatives” (Hoffmann-La Roche Inc., priority 2010, dated 2012)
